Patent US12649722B2, “Herbicidal cinnoline derivatives” (SYNGENTA CROP PROTECTION AG, priority 2020, dated 2026)

Key:
Type in all cases: in vivo
[1] = test system: Amaranthus retoflexus (AMARE); assay: Pre-emergence Test, AMARE; settings: 1000 g/ha, evaluated after 13 days
[2] = test system: Ipornoea hederacea (IPOHE); assay: Pre-emergence Test, IPOHE; settings: 1000 g/ha, evaluated after 13 days
[3] = test system: Echinochloa crus-galli (ECHCG); assay: Pre-emergence Test, ECHCG; settings: 1000 g/ha, evaluated after 13 days
Setaria faberi (SETFA) [4] = assay: Pre-emergence Test, SETFA; settings: 1000 g/ha, evaluated after 13 days
ZEAMX [5] = assay: Pre-emergence Test, ZEAMX; settings: 1000 g/ha, evaluated after 13 days
ABUTH [6] = assay: Pre-emergence Test, ABUTH; settings: 1000 g/ha, evaluated after 13 days
[7] = test system: Amaranthus retoflexus (AMARE); assay: Post-emergence Test, AMARE; settings: sprayed after 8 days cultivation, 1000 g/ha, evaluated after 13 days
Procedure: (§1) Seeds of a variety of test species are sown in standard soil in pots (Amaranthus retoflexus (AMARE), Solarium nigrum (SOLNI), Setaria faberi (SETFA), Lolium perenne (LOLPE), Echinochloa crus-galli (ECHCG), Ipornoea hederacea (IPOHE)). After 8 days cultivation under controlled conditions in a glasshouse (at 24° C./16° C., day/night; 14 hours light; 65% humidity), the plants are sprayed with an aqueous spray solution derived from the formulation of the technical active ingredient in acetone/water (50:50) solution containing 0.5% Tween 20 (polyoxyethylene sorbitan monolaurate, CAS RN 9005-64-5). Compounds are applied at 1000 g/ha unless otherwise stated. The test plants are then grown in a glasshouse under controlled conditions in a glasshouse (at 24° C./16° C., day/night; 14 hours light; 65% humidity) and watered twice daily. After 13 days the test is evaluated for the percentage damage caused to the plant. The biological activities are shown in the following table on a five-point scale (5=81-100%; 4=61-80%; 3=41-60%; 2=21-40%; 1=10-20%; 0=0%; −=not tested).

[8] = test system: Ipornoea hederacea (IPOHE); assay: Post-emergence Test, IPOHE; settings: sprayed after 8 days cultivation, 1000 g/ha, evaluated after 13 days
Procedure: as §1

[9] = test system: Echinochloa crus-galli (ECHCG); assay: Post-emergence Test, ECHCG; settings: sprayed after 8 days cultivation, 1000 g/ha, evaluated after 13 days
Procedure: as §1

Setaria faberi (SETFA) [10] = assay: Post-emergence Test, SETFA; settings: sprayed after 8 days cultivation, 1000 g/ha, evaluated after 13 days
Procedure: as §1

ZEAMX [11] = assay: Post-emergence Test, ZEAMX; settings: sprayed after 8 days cultivation, 1000 g/ha, evaluated after 13 days
Procedure: [The procedure below names another target; the source lists this target under the same test.] as §1

ABUTH [12] = assay: Post-emergence Test, ABUTH; settings: sprayed after 8 days cultivation, 1000 g/ha, evaluated after 13 days
Procedure: [The procedure below names another target; the source lists this target under the same test.] as §1

SMILES | percentage damage caused to the plant, AMARE [1] | percentage damage caused to the plant, IPOHE [2] | percentage damage caused to the plant, ECHCG [3] | percentage damage caused to the plant, SETFA (Setaria faberi (SETFA) [4]) | percentage damage caused to the plant, ZEAMX (ZEAMX [5]) | percentage damage caused to the plant, ABUTH (ABUTH [6]) | percentage damage caused to the plant, AMARE [7] | percentage damage caused to the plant, IPOHE [8] | percentage damage caused to the plant, ECHCG [9] | percentage damage caused to the plant, SETFA (Setaria faberi (SETFA) [10]) | percentage damage caused to the plant, ZEAMX (ZEAMX [11]) | percentage damage caused to the plant, ABUTH (ABUTH [12])
CCOC(=O)c1nn(-c2ccc(OC(F)(F)F)cc2)c2cccc(-n3cc(C(F)(F)F)cn3)c2c1=O [Compound P31, ethyl 4-oxo-1-[4-(trifluoromethoxy)phenyl]-5-[4-(trifluoromethyl)pyrazol-1-yl]cinnoline-3-carboxylate] | 0 (0=0%) | 0 (0=0%) | 0 (0=0%) | 0 (0=0%) | 0 (0=0%) | 0 (0=0%) | 0 (0=0%) | 0 (0=0%) | 0 (0=0%) | 0 (0=0%) | 0 (0=0%) | 0 (0=0%)
CCOC(=O)c1nn(-c2ccc(OC(F)(F)F)cc2)c2cccc(/C(C)=N/O)c2c1=O [Compound P14, ethyl 5-[(E)-N-hydroxy-C-methyl-carbonimidoyl]-4-oxo-1-[4-(trifluoromethoxy)phenyl] cinnoline-3-carboxylate] | 1 (1=10-20%) | 0 (0=0%) | 4 (4=61-80%) | 4 (4=61-80%) | 2 (2=21-40%) | 1 (1=10-20%) | 2 (2=21-40%) | 1 (1=10-20%) | 4 (4=61-80%) | 3 (3=41-60%) | 4 (4=61-80%) | 3 (3=41-60%)
CCOC(=O)c1nn(-c2ccc(OC(F)(F)F)cc2)c2cccc(C#N)c2c1=O [Compound P38, ethyl 5-cyano-4-oxo-1-[4-(trifluoromethoxy)phenyl] cinnoline-3-carboxylate] | 3 (3=41-60%) | 1 (1=10-20%) | 5 (5=81-100%) | 5 (5=81-100%) | 2 (2=21-40%) | 0 (0=0%) | 3 (3=41-60%) | 3 (3=41-60%) | 5 (5=81-100%) | 4 (4=61-80%) | 2 (2=21-40%) | 1 (1=10-20%)
CCOC(=O)c1nn(-c2ccc(OC)c(OC)c2)c2cccc(C#N)c2c1=O [Compound P42, ethyl 5-cyano-1-(3,4-dimethoxyphenyl)-4-oxo-cinnoline-3-carboxylate] | 0 (0=0%) | 0 (0=0%) | 0 (0=0%) | 0 (0=0%) | 0 (0=0%) | 0 (0=0%) | 0 (0=0%) | 0 (0=0%) |  | 0 (0=0%) | 0 (0=0%) | 0 (0=0%)
CCOC(=O)c1nn(-c2ccc(OC(F)(F)F)cc2)c2cccc(N3CCCCC3)c2c1=O [Compound P27, ethyl 4-oxo-5-(1-piperidyl)-1-[4-(trifluoromethoxy)phenyl] cinnoline-3-carboxylate] | 0 (0=0%) | 0 (0=0%) | 0 (0=0%) | 0 (0=0%) | 0 (0=0%) | 0 (0=0%) | 0 (0=0%) | 0 (0=0%) | 0 (0=0%) | 0 (0=0%) | 0 (0=0%) | 0 (0=0%)
CCOC(=O)c1nn(-c2ccc(OC(F)(F)F)cc2)c2cccc(-c3cc(C(F)F)on3)c2c1=O [Compound P12, ethyl 5-[5-(difluoromethyl)isoxazol-3-yl]-4-oxo-1-[4-(trifluoromethoxy)phenyl] cinnoline-3-carboxylate] | 0 (0=0%) | 0 (0=0%) | 0 (0=0%) | 0 (0=0%) |  | 0 (0=0%) | 0 (0=0%) | 2 (2=21-40%) | 0 (0=0%) | 2 (2=21-40%) | 1 (1=10-20%) | 1 (1=10-20%)
O=C(O)c1nn(-c2ccc(OC(F)(F)F)cc2)c2cccc([N+](=O)[O-])c2c1=O [Compound P40, 5-nitro-4-oxo-1-[4-(trifluoromethoxy)phenyl] cinnoline-3-carboxylic acid] | 2 (2=21-40%) | 0 (0=0%) | 2 (2=21-40%) | 5 (5=81-100%) | 0 (0=0%) | 3 (3=41-60%) | 1 (1=10-20%) | 0 (0=0%) | 3 (3=41-60%) | 5 (5=81-100%) | 1 (1=10-20%) | 
COc1ccc(-n2nc(C(=O)O)c(=O)c3c(C#N)cccc32)cc1OC [Compound P41, 5-cyano-1-(3,4-dimethoxyphenyl)-4-oxo-cinnoline-3-carboxylic acid] | 0 (0=0%) | 0 (0=0%) | 0 (0=0%) | 0 (0=0%) | 0 (0=0%) | 0 (0=0%) | 0 (0=0%) | 1 (1=10-20%) |  | 2 (2=21-40%) | 0 (0=0%) | 1 (1=10-20%)
CCOC(=O)c1nn(-c2ccc(OC(F)(F)F)cc2)c2cccc([N+](=O)[O-])c2c1=O [Compound P39, ethyl 5-nitro-4-oxo-1-[4-(trifluoromethoxy)phenyl] cinnoline-3-carboxylate] | 0 (0=0%) | 0 (0=0%) | 2 (2=21-40%) | 5 (5=81-100%) | 0 (0=0%) | 1 (1=10-20%) | 0 (0=0%) | 0 (0=0%) | 3 (3=41-60%) | 3 (3=41-60%) | 0 (0=0%) | 
